According to PubChem BioAssay (NCI):
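Values below derive from 48-hour exposures of cells grown in 96-well plates, with endpoints linearly interpolated between the two concentrations bracketing the appropriate inhibition level. GI50 = concentration required for 50% inhibition of growth. TGI: concentration producing complete growth inhibition.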

Columns and labels:
Assay in all cases: growth of human tumour cells (NCI), 48 h
[1] = tested on: 786-0 renal
[2] = tested on: HCT-15 colon
[3] = tested on: CAKI-1 renal
[4] = tested on: ACHN renal
[5] = tested on: UO-31 renal
[6] = tested on: HOP-62 NSCLC
[7] = tested on: OVCAR-3 ovarian
[8] = tested on: LOX IMVI melanoma
[9] = tested on: CCRF-CEM leukemia
[10] = tested on: HCT-116 colon

SMILES	TGI [1] [µM]	TGI [2] [µM]	TGI [3] [µM]	TGI [4] [µM]	TGI [5] [µM]	TGI [6] [µM]	TGI [7] [µM]	TGI [8] [µM]	TGI [9] [µM]	TGI [10] [µM]	GI50 [4] [µM]	GI50 [5] [µM]	GI50 [6] [µM]	GI50 [7] [µM]	GI50 [8] [µM]	GI50 [9] [µM]	GI50 [10] [µM]
C=C(C)C1(Sc2ccc(OC)cc2)CC1	> 100	> 100	> 100	> 100	> 100	> 100	29.7	33.4	> 100	> 100	–	–	–	–	–	–	–
Cc1ccc(C)n1-c1ccccc1C1C=Cn2c(=O)oc3c(OC(C)C)c(OC(C)C)c(O)c1c32 (stereo not drawn)	> 100	> 100	> 100	> 100	31.9	> 100	> 100	38.4	> 100	> 100	–	–	–	–	–	–	–
COc1cc2nc(-c3cccs3)nc(Nc3ccccc3C(=O)NN)c2cc1OC	> 100	> 100	> 100	> 100	> 100	> 100	> 100	> 100	> 100	> 100	–	–	–	–	–	–	–
O=S(=O)(O)c1cc(S(=O)(=O)O)c2cc(N=Nc3ccc(N=Nc4ccc(/C=C/c5ccc(N=[N+]([O-])c6ccc(/C=C/c7ccc(N=Nc8ccc(N=Nc9ccc%10cc(S(=O)(=O)O)cc(S(=O)(=O)O)c%10c9)cc8)cc7S(=O)(=O)O)c(S(=O)(=O)O)c6)cc5S(=O)(=O)O)c(S(=O)(=O)O)c4)cc3)ccc2c1	–	> 100	–	–	> 100	> 100	> 31.6	> 100	> 100	> 100	–	–	–	–	–	–	–
CSc1ccc(N2C(=O)C3c4[nH]c5ccccc5c4C4CCC(C(C)(C)C)CC4C3C2=O)cc1 (stereo not drawn)	29.1	> 100	42.9	29.1	40.7	28.6	> 100	31.8	23.5	18	–	–	–	–	–	–	–
OCc1ccc2c(c1)CC1(Cc3ccccc3C1)C2	29.6	> 100	50.5	57.7	29.1	> 100	68.5	29.7	54.4	35.5	–	–	–	–	–	–	–
CCOc1ccccc1N=NC1C(=O)N(C(=O)CC(=O)Nc2ccccc2C)N=C1C (stereo not drawn)	> 100	> 100	> 100	> 100	63.6	41.5	> 100	> 100	> 100	> 100	–	–	–	–	–	–	–
CCOC(=O)c1ccc2nc3n(c2c1)C(c1c(F)cccc1F)SC3 (stereo not drawn)	> 100	> 100	> 100	> 100	> 100	> 100	> 100	> 100	> 100	> 100	–	–	–	–	–	–	–
COC1C(O)C(C)OC(O[C@H]2CC[C@@]3(C)C(CC[C@@H]4[C@@H]3CC[C@]3(C)[C@@H](C(C)OC5OC(CO)C(O)C(O)C5O)CC[C@]43O)C2)C1O (stereo partly drawn)	> 25	> 25	> 25	> 25	> 25	> 25	> 25	> 25	> 25	> 25	–	–	–	–	–	–	–
Clc1ccc(C2SCc3nc4ccccc4n32)cc1 (stereo not drawn)	–	> 100	73.9	> 100	41.7	–	> 100	40.6	78.9	–	–	–	–	–	–	–	–
N=c1ncn(C/C=C/c2ccccc2)c2nc[nH]c12	> 100	> 100	> 100	> 100	> 100	> 100	> 100	> 100	–	> 100	–	–	–	–	–	–	–
COCC(C#N)NC1CC(OC2CC(O)(C(=O)CO)Cc3c(O)c4c(c(O)c32)C(=O)c2c(OC)cccc2C4=O)OC(C)C1O (stereo not drawn)	1.77	12.8	0.285	5.46	2.77	0.261	3	0.599	1.69	–	–	–	–	–	–	–	–
NS(=O)(=O)c1ccc(-c2ccc([As](=O)(O)O)cc2)cc1	> 100	> 100	> 100	> 100	> 100	> 100	> 100	> 100	–	> 100	–	–	–	–	–	–	–
N#CCCN(CCCCN(CCC#N)C(=O)Nc1ccccc1)C(=O)Nc1ccccc1	> 100	> 100	> 100	> 100	> 100	> 100	> 100	> 100	–	> 100	–	–	–	–	–	–	–
CCSC12OC3(CCCCCN3C1=O)C1C(=O)N(c3ccccc3)C(=O)C12 (stereo not drawn)	> 100	> 100	> 100	> 100	> 100	–	> 100	> 100	> 100	> 100	–	–	–	–	–	–	–
CC(=O)/C=C(/C)[O-].CC(=O)/C=C(/C)[O-].CC(=O)[CH-]C(C)=O.CC(=O)[CH-]C(C)=O.[Zr+4]	–	–	–	> 100	> 100	> 100	> 100	> 100	> 100	16.3	> 100	> 100	> 100	> 100	> 100	> 100	3.89
CCCN=C1NC(C)=CSC(Nc2ccccc2)=C1C#N	> 100	> 100	> 100	> 100	> 100	> 100	> 100	–	–	> 100	–	–	–	–	–	–	–
COC(=O)N[C@@H]1C[C@H]2CC[C@]1(O[Si](C(C)C)(C(C)C)C(C)C)C(=O)C2	69	41.4	> 100	45.7	32	46.4	39.7	–	> 100	> 100	–	–	–	–	–	–	–
O=C1CCCC1CC(CN1CCOCC1)Sc1nnnn1-c1ccccc1 (stereo not drawn)	> 100	–	79.1	> 100	> 100	> 100	> 100	> 100	> 100	> 100	–	–	–	–	–	–	–
N=C(N)SCc1nc(-c2ccc(Cl)cc2)no1	29.3	55.9	27.4	27.5	–	> 100	26.2	31.2	31.8	31.9	–	–	–	–	–	–	–
